Data: paper PMC12390684 (Viruses, 2025)
Like-named read-outs stand apart in the source and are kept apart here.

Assays:
[1] = molecular target: IN-GCN2 interaction (6xHis-IN / GST-GCN2) (UniProt P04585+Q9P2K8); assay: biochemical; format: binding, HIV-1 IN; human GCN2; settings: for IN-GCN2 interaction (%): screen, single dose 100 µM, single replicate, residual AlphaLISA signal normalized to DMSO control
[2] = Cytotoxicity (CellTiter 96 AQueous); format: cell-based; settings: human
HIV-1Laï = assay: microbe, parasite or virus in culture; format: cell-based; settings: for EC50: 24 h infection, read-out: EC50; for SI (CC50/EC50): selectivity index; for nontoxic concentrations at which a proviral effect was seen: Figure S5
[3] = P4 MAGI CCR5+ cells, 24 h, read-out: CC50
[4] = IC50, inhibition of IN-GCN2 interaction, SAR study, fresh dilutions from powder, at least three independent experiments
[5] = Human immunodeficiency virus 1, MAGI, 24 h
[6] = IC50, inhibition of IN-GCN2 interaction, plated compounds of the screen, dose-response 100 µM to 46 nM (Figure 1B), n = 9

Sequence of IN-GCN2 interaction (6xHis-IN / GST-GCN2) (Q9P2K8 192-1024, other chains not shown): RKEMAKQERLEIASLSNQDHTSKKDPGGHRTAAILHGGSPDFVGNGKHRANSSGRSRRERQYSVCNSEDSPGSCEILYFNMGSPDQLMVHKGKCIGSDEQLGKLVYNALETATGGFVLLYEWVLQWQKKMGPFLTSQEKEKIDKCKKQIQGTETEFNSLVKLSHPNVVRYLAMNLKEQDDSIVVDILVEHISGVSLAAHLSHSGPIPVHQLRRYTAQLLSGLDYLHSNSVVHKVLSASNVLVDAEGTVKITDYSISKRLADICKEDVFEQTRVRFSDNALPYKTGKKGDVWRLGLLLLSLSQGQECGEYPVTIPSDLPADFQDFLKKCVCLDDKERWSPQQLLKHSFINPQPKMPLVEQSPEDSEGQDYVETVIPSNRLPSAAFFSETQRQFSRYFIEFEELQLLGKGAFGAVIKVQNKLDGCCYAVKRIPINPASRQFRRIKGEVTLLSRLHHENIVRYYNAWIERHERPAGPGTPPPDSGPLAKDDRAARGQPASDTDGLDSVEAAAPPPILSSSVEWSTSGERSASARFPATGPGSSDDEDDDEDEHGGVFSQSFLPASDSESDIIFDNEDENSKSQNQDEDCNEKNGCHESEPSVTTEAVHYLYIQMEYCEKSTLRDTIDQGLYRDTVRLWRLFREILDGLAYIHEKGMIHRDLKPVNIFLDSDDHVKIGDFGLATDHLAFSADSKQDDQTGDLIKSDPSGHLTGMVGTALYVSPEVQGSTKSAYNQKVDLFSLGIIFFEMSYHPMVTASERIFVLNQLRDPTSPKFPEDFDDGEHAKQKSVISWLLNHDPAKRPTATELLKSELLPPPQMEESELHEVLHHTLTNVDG

Row | Structure (SMILES) | CC50 at 24 h [2, 3] [µM] | IC50 [1, 4] [µM] | EC50 (HIV-1Laï; [5]) [µM] | IN-GCN2 interaction (%) [1] [%] | other results
1 | CN(C)CCCCNc1ccc(NCCCCN(C)C)c2c1C(=O)c1c(O)ccc(O)c1C2=O [Compound 2j] | > 5 | – | – | – | IC50 ([1]; read-out: IC50, inhibition of IN-GCN2 interaction, SAR study, fresh dilutions from powder, at least three independent experiments): 11.4 µM
2 | O=C1c2c(O)ccc(O)c2C(=O)c2c(NCCCCCO)ccc(NCCCCCO)c21 [Compound 2k] | > 5 | 12.2 | > 5 | – | –
3 | O=C1c2c(O)ccc(O)c2C(=O)c2c(NCCCO)ccc(NCCCO)c21 [Compound 2l] | > 5 | 13 | > 5 | – | –
4 | N#CCCNc1ccc(NCCC#N)c2c1C(=O)c1c(O)ccc(O)c1C2=O [Compound 2m] | > 5 | 16 | > 5 | – | –
5 | Clc1ccc2nc3ccccc3cc2c1 [Compound 2n] | > 5 | > 100 | – | – | –
6 | COc1cc2c(cc1OC)c1c(OC)c(OC)cc3c1c1c2sc(=S)n1CC3 [Compound 3a] | > 5 | 24 | – | – | –
7 | COc1cc2c(c(OC)c1OC)CC1c3c(cc4c(c3-2)OCO4)CCN1C (stereo not drawn) [Compound 3c] | – | 54 | – | – | fold decrease in activity compared to NSC785155 ([1]; IC50 ratio): 10 fold; CC50 at 24 h [2]: > 5 µM
8 | CCOC(=O)N1CCc2cc(OC)c(OC)c3c2c1cc1cc(OC)c(OC)cc13 [Compound 3d] | > 5 | 71 | 1 | – | effect on HIV replication, in words (HIV-1Laï): decrease in viral replication; EC50 (HIV-1Laï): 1.02 µM; SI (CC50/EC50) (HIV-1Laï): >4.9
9 | COc1cc2c(cc1OC)-c1c3c(cc4c1[C@H](C2)N(C)CC4)OCO3 [Compound 3e] | – | 73 | > 5 | – | CC50 at 24 h [2]: > 5 µM
10 | S=c1[nH]c2ccccc2nc1NCc1ccccc1 [Compound 3f] | > 5 | 83 | 2.4 | – | EC50 (HIV-1Laï): 2.37 µM; SI (CC50/EC50) (HIV-1Laï): >2.1
11 | COc1cc2c(cc1OC)-c1c3c(cc4c1C(C2)N(C)CC4)OCO3 (stereo not drawn) [Compound 3g] | – | 92 | – | – | viral replication, maximum, relative to DMSO control (HIV-1Laï; dose-dependent increase (pro-viral effect)): up to 150%
12 | COc1ccc2c(c1)CC1c3c(cc4c(c3-2)OCO4)CCN1C (stereo not drawn) [Compound 3h] | – | > 100 | – | – | CC50 ([2]; 24 h, read-out: CC50): > 5 µM
13 | COc1cc2c3c(c1)-c1c(ccc(OC)c1O)CC3N(C)CC2 (stereo not drawn) [Compound 3i] | – | > 100 | > 5 | – | CC50 at 24 h [2]: > 5 µM
14 | COc1ccc2c(c1OC)-c1c3c(cc4c1C(C2)N(C)CC4)OCO3 (stereo not drawn) [Compound 3j] | – | > 100 | – | – | CC50 at 24 h [2]: > 5 µM
15 | COc1cc2c(cc1OC)-c1c(OC)c(OC)cc3c1C(C2)N(C)CC3 (stereo not drawn) [Compound 3k] | – | > 100 | – | 124.35 | effect on IN-GCN2 interaction in dose-response, in words ([1]; dose-response assessment): inactive; CC50 ([2]; 24 h, read-out: CC50): > 5 µM
16 | COc1cc2c3c(c1O)C1(C=CC(=O)C=C1)CC3N(C)CC2 (stereo not drawn) [Compound 3l] | > 5 | > 100 | – | – | –
17 | COc1cc2ccc3c(c2cc1OC)N(C)C(OC)c1cc2c(cc1-3)OCO2 (stereo not drawn) [Compound 3m] | – | > 100 | – | – | CC50 ([2]; 24 h, read-out: CC50): > 5 µM
18 | CCCCCC1=C/C(=C/c2[nH]c(-c3ccc[nH]3)cc2OC)N=C1C [NSC47147, prodigiosin] | – | – | – | 6.31 | IC50 ([1]; IC50, inhibition of IN-GCN2 interaction, plated compounds of the screen, dose-response (Figure 1B), n = 9): 0.88 µM; CC50 at 24 h ([2]; 24 h, read-out: CC50): 1.96 µM; nontoxic concentrations at which a proviral effect was seen (HIV-1Laï): < 200 nM
19 | CCCCC1CCCCCCc2[nH]c(C=C3N=C(c4ccc[nH]4)C=C3OC)cc21 (stereo not drawn) [NSC247562] | – | – | – | 8.97 | IC50 [1, 6]: 1.45 µM; CC50 ([2]; 24 h, read-out: CC50): 3.85 µM; nontoxic concentrations at which a proviral effect was seen (HIV-1Laï): < 200 nM
20 | COc1cc2c3c(cc4ccccc4c3c1O)N(C)CC2 [NSC785168] | – | 17 | > 5 | 4.53 | IC50 [1, 6]: 5.7 µM; CC50 ([2]; 24 h, read-out: CC50): > 5 µM
21 | COc1cc2c3c(c1O)-c1cc(O)ccc1CC3N(C)CC2 (stereo not drawn) [NSC785186] | – | – | – | 59.88 | –
22 | COc1ccc2c(c1OC)-c1c(OC)c(OC)cc3c1[C@H](C2)NCC3 [NSC785187] | – | – | – | 70.21 | –
23 | COc1ccc2c(c1O)-c1c3c(cc4c1[C@H](C2)N(C)CC4)OCO3 [NSC785188] | – | – | – | 77.54 | –
24 | COc1cc2c(cc1O)C[C@H]1c3c(cc(OC)c(OC)c3-2)CCN1C [NSC785189] | – | – | – | 31.39 | –
